*1 amine or outer side, *2 acyl side, *3 side chain or, on linkers, in order; H or OH if unused. Where a SMILES comes first, the peptide text is derived from it. [ ]: non-standard residue; d: D form. The star is where a group is joined. ξ: configuration not given here. ξLys(Nα-CO-ξAad) = O=C(O)CCCC(NC(=O)NC(CCCCN*)C(=O)O)C(=O)O; Butanoyl(4-(4-NO2Ph)) = O=C(CCCc1ccc([N+](=O)[O-])cc1)*; DOTA = O=C(O)CN1CCN(CC(=O)O)CCN(CC(=O)*)CCN(CC(=O)O)CC1; ξAla(9-anthryl) = NC(Cc1c2ccccc2cc2ccccc12)C(=O)O; X1 = O=C(C1CCC(CN[*:1])CC1)[*:2]; ξK = NCCCCC(N)C(=O)O
Test system: NRG-mice bearing LNCaP tumors
Assay: Biodistribution (and PET/SPECT imaging) in NRG-mice bearing LNCaP tumors
Format: in vivo
Conditions: Avg
Method: LNCaP cell line was obtained from ATCC (LNCaP clone FGC, CRL-1740). It was established from a metastatic site of left supraclavicular lymph node of human prostatic adenocarcinoma. Cells were cultured in PRMI 1640 medium supplemented with 10% FBS, penicillin (100 U/mL) and streptomycin (100 μg/mL) at 37° C. in a humidified incubator containing 5% CO2. Cells grown to 80-90% confluence were then washed with sterile phosphate-buffered saline (1×PBS pH 7.4) and trypsinization. The collected cells number was counted with a Hausser Scientific (Horsham, PA) Hemacytometer. Approximately 10 million LNCaP cells were inoculated into the left dorsal flank of immunocomprised NRG mice. The tumours were allowed to grow for 4-6 weeks and used for imaging and biodistribution studies when a volume of 200-600 mm^3 was reached.
PET imaging experiments were conducted using Siemens Inveon micro PET/CT scanner. SPECT imaging experiments were conducted using an MILabs micro SPECT/CT scanner. Each tumor bearing mouse was injected 4-6 MBq of ^68Ga or 18.5 MBq of ^177Lu labeled tracer through the tail vein under anesthesia (2% isoflurane in oxygen). The mice were allowed to recover and roam freely in their cage. At pre-defined time point, the mice were sedated again with 2% isoflurane in oxygen inhalation and positioned in the scanner. A 10-min CT scan was conducted first for localization and attenuation correction after segmentation for reconstructing the PET or SPECT images. Then, a 10-min static PET imaging or a one hour (30 min×2 frames) of static SPECT scan was performed to determined uptake in tumor and other organs. The mice were kept warm by a heating pad during acquisition.
For biodistribution studies, the mice were injected with the radiotracer as described above. The mice were anesthetized with 2% isoflurane inhalation, and euthanized by CO2 inhalation. Blood was withdrawn immediately from the heart, and the organs/tissues of interest were collected. The collected organs/tissues were weighed and counted using a Perkin Elmer (Waltham, MA) Wizard2 2480 gamma counter. The uptake in each organ/tissue was normalized to the injected dose (radioactivity) using a standard curve, and expressed as the percentage of the injected dose per gram of tissue (% ID/g).

Structure (SMILES): O=C([O-])CN1CCN(CC(=O)[O-])CCN(CC(=O)NCCCCC(NC(=O)CNC(=O)CCCc2ccc([N+](=O)[O-])cc2)C(=O)NCC(=O)NCC2CCC(C(=O)NC(Cc3c4ccccc4cc4ccccc34)C(=O)NCCCCC(NC(=O)NC(CCCC(=O)O)C(=O)O)C(=O)O)CC2)CCN(CC(=O)[O-])CC1.[225Ac+3] (stereo not drawn) [^225Ac-CCZ02017] ({Butanoyl(4-(4-NO2Ph))}-G[ξK](DOTA)G[X1][ξAla(9-anthryl)]-{ξLys(Nα-CO-ξAad)})
- Biodistribution: Adrenal gland (3 h p.i.): 3.61 % ID/g
- Biodistribution: Blood (3 h p.i.): 9.83 % ID/g
- Biodistribution: Bone (3 h p.i.): 1.24 % ID/g
- Biodistribution: Brain (3 h p.i.): 0.19 % ID/g
- Biodistribution: Fat (3 h p.i.): 1.96 % ID/g
- Biodistribution: Heart (3 h p.i.): 2.27 % ID/g
- Biodistribution: Intestine (3 h p.i.): 1.02 % ID/g
- Biodistribution: LNCaP tumor (3 h p.i.): 23.63 % ID/g
- Biodistribution: Lacrimal gland (3 h p.i.): 0.92 % ID/g
- Biodistribution: Liver (3 h p.i.): 1.90 % ID/g
- Biodistribution: Lungs (3 h p.i.): 4.93 % ID/g
- Biodistribution: Muscle (3 h p.i.): 0.80 % ID/g
- Biodistribution: Pancreas (3 h p.i.): 1.14 % ID/g
- Biodistribution: Salivary gland (3 h p.i.): 3.37 % ID/g
- Biodistribution: Seminal gland (3 h p.i.): 2.26 % ID/g
- Biodistribution: Spleen (3 h p.i.): 1.15 % ID/g
- Biodistribution: Stomach (3 h p.i.): 0.47 % ID/g
- Biodistribution: Testes (3 h p.i.): 2.73 % ID/g
- Biodistribution: Thyroid (3 h p.i.): 1.72 % ID/g
- Biodistribution: Urine (3 h p.i.): 142.80 % ID/g
- Biodistribution: kidney (3 h p.i.): 14.29 % ID/g
- Biodistribution: Adrenal gland (24 h p.i.): 0.59 % ID/g
- Biodistribution: Blood (24 h p.i.): 0.28 % ID/g
- Biodistribution: Bone (24 h p.i.): 0.30 % ID/g
- Biodistribution: Brain (24 h p.i.): 0.03 % ID/g
- Biodistribution: Fat (24 h p.i.): 0.13 % ID/g
- Biodistribution: Heart (24 h p.i.): 0.25 % ID/g
- Biodistribution: Intestine (24 h p.i.): 0.15 % ID/g
- Biodistribution: LNCaP tumor (24 h p.i.): 42.31 % ID/g
- Biodistribution: Lacrimal gland (24 h p.i.): 0.32 % ID/g
- Biodistribution: Liver (24 h p.i.): 0.68 % ID/g
- Biodistribution: Lungs (24 h p.i.): 0.58 % ID/g
- Biodistribution: Muscle (24 h p.i.): 0.06 % ID/g
- Biodistribution: Pancreas (24 h p.i.): 0.09 % ID/g
- Biodistribution: Salivary gland (24 h p.i.): 0.35 % ID/g
- Biodistribution: Seminal gland (24 h p.i.): 0.15 % ID/g
- Biodistribution: Spleen (24 h p.i.): 0.50 % ID/g
- Biodistribution: Stomach (24 h p.i.): 0.20 % ID/g
- Biodistribution: Testes (24 h p.i.): 0.38 % ID/g
- Biodistribution: Thyroid (24 h p.i.): 0.33 % ID/g
- Biodistribution: Urine (24 h p.i.): 4.30 % ID/g
- Biodistribution: kidney (24 h p.i.): 6.87 % ID/g
- Biodistribution: Adrenal gland (72 h p.i.): 24.11 % ID/g
- Biodistribution: Blood (72 h p.i.): 0.01 % ID/g
- Biodistribution: Bone (72 h p.i.): 0.34 % ID/g
- Biodistribution: Brain (72 h p.i.): 0.02 % ID/g
- Biodistribution: Fat (72 h p.i.): 0.40 % ID/g
- Biodistribution: Heart (72 h p.i.): 0.16 % ID/g
- Biodistribution: Intestine (72 h p.i.): 0.06 % ID/g
- Biodistribution: LNCaP tumor (72 h p.i.): 54.12 % ID/g
- Biodistribution: Lacrimal gland (72 h p.i.): 1.39 % ID/g
- Biodistribution: Liver (72 h p.i.): 0.51 % ID/g
- Biodistribution: Lungs (72 h p.i.): 0.19 % ID/g
- Biodistribution: Muscle (72 h p.i.): 0.04 % ID/g
- Biodistribution: Pancreas (72 h p.i.): 0.09 % ID/g
- Biodistribution: Salivary gland (72 h p.i.): 0.33 % ID/g
- Biodistribution: Seminal gland (72 h p.i.): 0.03 % ID/g
- Biodistribution: Spleen (72 h p.i.): 0.93 % ID/g
- Biodistribution: Stomach (72 h p.i.): 0.06 % ID/g
- Biodistribution: Testes (72 h p.i.): 0.33 % ID/g
- Biodistribution: Thyroid (72 h p.i.): 0.22 % ID/g
- Biodistribution: Urine (72 h p.i.): 1.33 % ID/g
- Biodistribution: kidney (72 h p.i.): 3.62 % ID/g
- Biodistribution: Adrenal gland (144 h p.i.): 0.31 % ID/g
- Biodistribution: Blood (144 h p.i.): 0.01 % ID/g
- Biodistribution: Bone (144 h p.i.): 0.23 % ID/g
- Biodistribution: Brain (144 h p.i.): 0.02 % ID/g
- Biodistribution: Fat (144 h p.i.): 0.07 % ID/g
- Biodistribution: Heart (144 h p.i.): 0.14 % ID/g
- Biodistribution: Intestine (144 h p.i.): 0.06 % ID/g
- Biodistribution: LNCaP tumor (144 h p.i.): 71.25 % ID/g
- Biodistribution: Lacrimal gland (144 h p.i.): 0.65 % ID/g
- Biodistribution: Liver (144 h p.i.): 0.71 % ID/g
- Biodistribution: Lungs (144 h p.i.): 0.13 % ID/g
- Biodistribution: Muscle (144 h p.i.): 0.02 % ID/g
- Biodistribution: Pancreas (144 h p.i.): 0.14 % ID/g
- Biodistribution: Salivary gland (144 h p.i.): 0.21 % ID/g
- Biodistribution: Seminal gland (144 h p.i.): 0.04 % ID/g
- Biodistribution: Spleen (144 h p.i.): 0.65 % ID/g
- Biodistribution: Stomach (144 h p.i.): 0.05 % ID/g
- Biodistribution: Testes (144 h p.i.): 0.29 % ID/g
- Biodistribution: Thyroid (144 h p.i.): 0.23 % ID/g
- Biodistribution: Urine (144 h p.i.): 0.55 % ID/g
- Biodistribution: kidney (144 h p.i.): 1.95 % ID/g
- Biodistribution: Adrenal gland (240 h p.i.): 0.53 % ID/g
- Biodistribution: Blood (240 h p.i.): 0.02 % ID/g
- Biodistribution: Bone (240 h p.i.): 0.57 % ID/g
- Biodistribution: Brain (240 h p.i.): 0.02 % ID/g
- Biodistribution: Fat (240 h p.i.): 0.13 % ID/g
- Biodistribution: Heart (240 h p.i.): 0.16 % ID/g
- Biodistribution: Intestine (240 h p.i.): 0.06 % ID/g
- Biodistribution: LNCaP tumor (240 h p.i.): 123.67 % ID/g
- Biodistribution: Lacrimal gland (240 h p.i.): 0.19 % ID/g
- Biodistribution: Liver (240 h p.i.): 1.49 % ID/g
- Biodistribution: Lungs (240 h p.i.): 0.18 % ID/g
- Biodistribution: Muscle (240 h p.i.): 0.08 % ID/g
- Biodistribution: Pancreas (240 h p.i.): 0.06 % ID/g
- Biodistribution: Salivary gland (240 h p.i.): 0.32 % ID/g
- Biodistribution: Seminal gland (240 h p.i.): 0.06 % ID/g
- Biodistribution: Spleen (240 h p.i.): 1.14 % ID/g
- Biodistribution: Stomach (240 h p.i.): 0.08 % ID/g
- Biodistribution: Testes (240 h p.i.): 0.27 % ID/g
- Biodistribution: Thyroid (240 h p.i.): 0.23 % ID/g
- Biodistribution: Urine (240 h p.i.): 0.41 % ID/g
- Biodistribution: kidney (240 h p.i.): 2.24 % ID/g

From US20250186627A1, “RADIOLABELED COMPOUNDS TARGETING THE PROSTATE-SPECIFIC MEMBRANE ANTIGEN” (PROVINCIAL HEALTH SERVICES AUTHORITY, priority 2022, published 2025)
